In patent US8389677B2, “Antioxidant polypeptide and a process for isolation and purification of the same” (Adichunchanagiri Biotechnology and Cancer Research Institute, priority 2010, dated 2013):

Key:
lipid peroxidation = test: Thio Barbituric Acid Reactive Substance (TBARS) antioxidant assay; assay type: biochemical; settings: concentration 400 μM
Procedure: (§1) ATE containing 2 mg protein was loaded on to the Sephadex G-50 column (VT=240 ml, VO=80 ml) and eluted with 0.1M Tris HCl, pH −7.4 containing 0.1 M NaCl and flow rate was 1.7 ml/5 min, Fractions were monitored at 280 nm. Two peaks were obtained namely Peak I and Peak II. Peak II depicts the polypeptide of the present invention (Arishinin) as shown in FIG. 1 and the Gel filtration chromatography profile of Aqueous Turmeric Extract. Peak II was pooled, concentrated and dialyzed against double distilled water at 4° C. using 2 KDa cut off dialysis membrane for 74 hrs. […] The antioxidant activity was done by TBARS and Hydroxy radical scavenging assay compared to standard antioxidant like BHA, Curcumin and α-tocopherol as positive controls. Cell viability test by Tryphan blue exclusion method was done to test the toxicity of Arishinin.
(§2) The quantification of water-soluble antioxidant polypeptide Arishinin, isolated by the process described in Examples 1 to 4 (as depicted in Table 1 above) was determined by the following methods. Protein estimation was done by Bradford's method (Bradford, M. M., 1976, Analytical Biochem., […]) with an absorption maximum at 595 nm and results shown in Table 1. The antioxidant activity of Arishinin was evaluated by Thio Barbituric Acid Reactive Substance (TBARS) (Shimasaki, H., et al., 1984, Biochem. Biophys. Acta, 792:123-129) and Deoxyribose method/Hydroxyl radical scavenging assay (Halliwell, B., et al., 1981, Methods of Biochemical Sciences, 33:59-90) with absorption maximum at 535 nm by using BHA, alpha tocopherol and Curcumin as standard antioxidants.

hydroxyl radical = test: Deoxyribose method / Hydroxyl radical scavenging assay; assay type: biochemical; settings: concentration 400 μM
Procedure: as §1, §2

mice = settings: at more than 0.1% dose; cited from earlier work

SMILES	INHIBITION (%) TBARS (lipid peroxidation)	INHIBITION (%) Hydroxyl radical (hydroxyl radical)	carcinogenicity (fore-stomach tumour in mice) (mice)
COc1cc(/C=C/C(=O)CC(=O)/C=C/c2ccc(O)c(OC)c2)ccc1O [Curcumin]	72 ± 1.5%	68 ± 3%	
Cc1c(C)c2c(c(C)c1O)CC[C@@](C)(CCC[C@H](C)CCC[C@H](C)CCCC(C)C)O2 [α-tocopherol]	92 ± 1%	88 ± 2%	
COc1ccc(O)c(C(C)(C)C)c1 [BHA, Butylated Hydroxyl Anisole]	84 ± 1.5%	80 ± 1%	carcinogenic
Cc1cc(C(C)(C)C)c(O)c(C(C)(C)C)c1 [BHT, Butylated Hydroxy Toluene]			carcinogenic
